Measured values from paper PMC7180948, “New Insights into 4-Anilinoquinazolines as Inhibitors of Cardiac Troponin I–Interacting Kinase (TNNi3K)” (Molecules, 2020).

Assays:
Experiment in all cases: biochemical
Parameters in all cases: KINOMEscan competition binding panel (Eurofins DiscoverX), single concentration, % inhibition
MYLK2 = MYLK2 (Homo sapiens, UniProt Q9H1R3); details: read-out: 7 at 1 µM % inhibition
In short: (§1)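 A single 1 µM concentration of each compound is screened across upwards of 400 human kinases using the KINOMEscan format.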

KIT = KIT (Homo sapiens, UniProt P10721); details: read-out: 7 at 1 µM % inhibition
KIT, sequence (P10721 whole entry): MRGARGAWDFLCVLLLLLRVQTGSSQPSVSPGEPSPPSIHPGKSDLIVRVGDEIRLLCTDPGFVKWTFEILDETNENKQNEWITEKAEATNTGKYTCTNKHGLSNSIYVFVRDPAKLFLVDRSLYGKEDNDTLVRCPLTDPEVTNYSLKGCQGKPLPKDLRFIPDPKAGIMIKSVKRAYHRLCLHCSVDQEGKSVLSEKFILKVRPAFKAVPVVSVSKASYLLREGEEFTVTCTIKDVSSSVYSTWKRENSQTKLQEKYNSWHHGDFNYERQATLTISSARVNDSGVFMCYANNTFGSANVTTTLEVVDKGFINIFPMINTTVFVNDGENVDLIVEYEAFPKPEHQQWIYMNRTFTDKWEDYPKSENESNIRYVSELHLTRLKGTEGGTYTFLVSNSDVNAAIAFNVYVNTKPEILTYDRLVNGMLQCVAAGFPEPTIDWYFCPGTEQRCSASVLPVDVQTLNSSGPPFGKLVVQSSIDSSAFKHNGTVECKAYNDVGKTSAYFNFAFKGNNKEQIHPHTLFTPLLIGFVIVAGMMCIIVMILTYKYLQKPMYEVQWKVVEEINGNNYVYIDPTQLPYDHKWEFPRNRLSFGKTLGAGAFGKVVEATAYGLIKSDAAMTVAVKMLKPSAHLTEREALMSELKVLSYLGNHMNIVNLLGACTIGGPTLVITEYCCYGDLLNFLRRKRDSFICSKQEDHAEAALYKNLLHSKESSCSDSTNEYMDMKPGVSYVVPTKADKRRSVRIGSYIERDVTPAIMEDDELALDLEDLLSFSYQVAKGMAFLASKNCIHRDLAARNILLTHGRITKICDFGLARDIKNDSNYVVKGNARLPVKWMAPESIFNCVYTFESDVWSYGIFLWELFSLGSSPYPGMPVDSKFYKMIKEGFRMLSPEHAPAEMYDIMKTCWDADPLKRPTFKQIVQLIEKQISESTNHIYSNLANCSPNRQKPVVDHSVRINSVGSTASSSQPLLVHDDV
In short: as §1

WNK4 = WNK4 (Homo sapiens, UniProt Q96J92); details: read-out: 7 at 1 µM % inhibition
In short: as §1

SRPK1 = SRPK1 (Homo sapiens, UniProt Q96SB4); details: read-out: 7 at 1 µM % inhibition
In short: as §1

IKK-epsilon = target: T1, IKK-epsilon (Homo sapiens, UniProt Q14164); details: read-out: 7 at 1 µM % inhibition
T1 construct: gene IKBKE
In short: as §1

SNARK = target: T2, SNARK (Homo sapiens, UniProt Q9H093); details: read-out: 7 at 1 µM % inhibition
T2 construct: gene NUAK2
T2 sequence (Q9H093 whole entry): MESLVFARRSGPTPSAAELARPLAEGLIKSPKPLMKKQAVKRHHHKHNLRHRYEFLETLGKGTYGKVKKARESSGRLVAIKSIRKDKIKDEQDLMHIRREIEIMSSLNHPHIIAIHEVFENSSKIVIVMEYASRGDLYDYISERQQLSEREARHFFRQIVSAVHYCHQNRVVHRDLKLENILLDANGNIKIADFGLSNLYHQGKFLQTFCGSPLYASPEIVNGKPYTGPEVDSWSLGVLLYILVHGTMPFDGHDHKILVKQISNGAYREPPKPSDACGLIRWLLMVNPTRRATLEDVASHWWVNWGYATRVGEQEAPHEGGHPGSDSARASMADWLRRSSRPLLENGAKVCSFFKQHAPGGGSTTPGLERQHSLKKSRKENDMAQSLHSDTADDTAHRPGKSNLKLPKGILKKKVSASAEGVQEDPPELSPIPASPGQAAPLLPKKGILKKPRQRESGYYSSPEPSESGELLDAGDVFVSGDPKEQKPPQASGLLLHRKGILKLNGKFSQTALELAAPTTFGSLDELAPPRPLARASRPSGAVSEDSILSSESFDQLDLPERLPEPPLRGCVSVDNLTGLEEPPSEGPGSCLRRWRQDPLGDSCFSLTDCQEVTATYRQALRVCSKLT
In short: as §1

EPHB3 = EPHB3 (Homo sapiens, UniProt P54753); details: read-out: 7 at 1 µM % inhibition
In short: as §1

PAK1 = PAK1 (Homo sapiens, UniProt Q13153); details: read-out: 7 at 1 µM % inhibition
In short: as §1

CLK4 = CLK4 (Homo sapiens, UniProt Q9HAZ1); details: read-out: 7 at 1 µM % inhibition
CLK4, sequence (Q9HAZ1 whole entry): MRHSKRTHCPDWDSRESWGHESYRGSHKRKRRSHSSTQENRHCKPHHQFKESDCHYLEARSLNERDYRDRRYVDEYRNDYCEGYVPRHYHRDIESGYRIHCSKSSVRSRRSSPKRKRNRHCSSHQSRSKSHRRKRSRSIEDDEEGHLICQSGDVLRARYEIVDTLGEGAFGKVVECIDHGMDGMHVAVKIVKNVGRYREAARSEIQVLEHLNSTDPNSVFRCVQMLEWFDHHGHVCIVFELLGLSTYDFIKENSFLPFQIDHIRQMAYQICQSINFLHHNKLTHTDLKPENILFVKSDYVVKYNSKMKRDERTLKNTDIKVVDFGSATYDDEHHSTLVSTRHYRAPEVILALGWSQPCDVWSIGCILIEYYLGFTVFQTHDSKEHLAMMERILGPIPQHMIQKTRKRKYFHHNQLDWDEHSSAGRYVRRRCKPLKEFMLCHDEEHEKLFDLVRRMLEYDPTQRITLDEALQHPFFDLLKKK
In short: as §1

MEK6 = target: T3, MEK6 (Homo sapiens, UniProt P52564); details: read-out: 7 at 1 µM % inhibition
T3 construct: gene MAP2K6
In short: as §1

FGFR3(G697C) = FGFR3(G697C) (Homo sapiens, UniProt P22607, G697C); details: read-out: 7 at 1 µM % inhibition
FGFR3(G697C), sequence (P22607 whole entry G697C): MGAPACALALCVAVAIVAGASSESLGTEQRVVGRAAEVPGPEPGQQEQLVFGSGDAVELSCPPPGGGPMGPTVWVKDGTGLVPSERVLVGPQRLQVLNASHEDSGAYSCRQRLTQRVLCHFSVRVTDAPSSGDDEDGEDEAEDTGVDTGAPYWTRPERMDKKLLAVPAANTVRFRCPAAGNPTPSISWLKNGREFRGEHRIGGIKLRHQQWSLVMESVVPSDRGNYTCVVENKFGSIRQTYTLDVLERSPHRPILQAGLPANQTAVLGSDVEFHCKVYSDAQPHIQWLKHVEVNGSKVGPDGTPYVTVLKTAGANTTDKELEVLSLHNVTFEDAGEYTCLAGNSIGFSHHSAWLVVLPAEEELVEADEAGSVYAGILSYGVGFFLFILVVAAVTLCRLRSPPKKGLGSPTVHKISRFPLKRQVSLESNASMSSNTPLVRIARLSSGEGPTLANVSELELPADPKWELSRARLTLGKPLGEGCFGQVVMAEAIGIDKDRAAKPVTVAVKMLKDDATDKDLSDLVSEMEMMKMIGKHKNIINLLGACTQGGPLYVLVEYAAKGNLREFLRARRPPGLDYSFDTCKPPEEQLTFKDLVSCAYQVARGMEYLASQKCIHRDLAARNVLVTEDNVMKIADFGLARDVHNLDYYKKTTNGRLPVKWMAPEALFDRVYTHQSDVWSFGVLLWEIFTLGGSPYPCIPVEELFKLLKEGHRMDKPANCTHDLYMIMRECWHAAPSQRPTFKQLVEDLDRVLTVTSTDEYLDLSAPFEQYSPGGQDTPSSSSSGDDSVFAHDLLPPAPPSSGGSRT
In short: as §1

FLT3(ITD) = FLT3(ITD) (Homo sapiens, UniProt P36888, ITD); details: read-out: 7 at 1 µM % inhibition
FLT3(ITD), sequence (P36888 564-993, change not shown): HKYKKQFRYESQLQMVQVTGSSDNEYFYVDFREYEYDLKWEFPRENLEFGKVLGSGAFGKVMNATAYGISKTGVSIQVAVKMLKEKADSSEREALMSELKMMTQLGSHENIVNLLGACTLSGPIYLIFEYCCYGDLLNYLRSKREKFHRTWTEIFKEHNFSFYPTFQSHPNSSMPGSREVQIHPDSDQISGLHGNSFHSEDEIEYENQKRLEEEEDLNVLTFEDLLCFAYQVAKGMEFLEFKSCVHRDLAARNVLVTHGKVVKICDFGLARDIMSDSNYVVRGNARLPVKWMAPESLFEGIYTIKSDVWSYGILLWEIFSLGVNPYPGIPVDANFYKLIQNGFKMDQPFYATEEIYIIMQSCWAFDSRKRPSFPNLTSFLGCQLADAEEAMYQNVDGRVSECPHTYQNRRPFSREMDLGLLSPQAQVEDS
In short: as §1

FLT1 = FLT1 (Homo sapiens, UniProt P17948); details: read-out: 7 at 1 µM % inhibition
In short: as §1

CLK3 = CLK3 (Homo sapiens, UniProt P49761); details: read-out: 7 at 1 µM % inhibition
In short: as §1

PKNB(M.tuberculosis) = PKNB(M.tuberculosis) (Mycobacterium tuberculosis, UniProt P9WI81); details: read-out: 7 at 1 µM % inhibition (pathogen kinases)
In short: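 KINOMEscan binding panel of >400 kinases, run by Eurofins DiscoverX, with compounds tested at a single concentration of 1 µM.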

ALK = ALK (Homo sapiens, UniProt Q9UM73); details: read-out: 7 at 1 µM % inhibition
In short: as §1

ITK = ITK (Homo sapiens, UniProt Q08881); details: read-out: 7 at 1 µM % inhibition
ITK, sequence (Q08881 whole entry): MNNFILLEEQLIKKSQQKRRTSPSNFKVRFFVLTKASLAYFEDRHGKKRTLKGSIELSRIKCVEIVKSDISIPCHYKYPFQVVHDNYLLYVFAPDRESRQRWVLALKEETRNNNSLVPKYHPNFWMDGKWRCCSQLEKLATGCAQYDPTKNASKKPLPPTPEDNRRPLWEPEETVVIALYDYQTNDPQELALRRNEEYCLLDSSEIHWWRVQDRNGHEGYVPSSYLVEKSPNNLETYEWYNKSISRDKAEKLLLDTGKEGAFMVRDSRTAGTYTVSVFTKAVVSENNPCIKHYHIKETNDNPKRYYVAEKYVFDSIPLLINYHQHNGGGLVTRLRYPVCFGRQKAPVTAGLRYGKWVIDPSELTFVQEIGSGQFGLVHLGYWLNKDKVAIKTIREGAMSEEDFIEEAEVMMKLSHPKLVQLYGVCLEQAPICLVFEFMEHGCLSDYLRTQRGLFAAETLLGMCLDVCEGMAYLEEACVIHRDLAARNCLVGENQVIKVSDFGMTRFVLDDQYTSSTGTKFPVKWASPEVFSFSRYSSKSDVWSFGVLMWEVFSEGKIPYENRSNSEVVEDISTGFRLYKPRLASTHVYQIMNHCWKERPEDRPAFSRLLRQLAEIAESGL
In short: as §1

PRKCH = PRKCH (Homo sapiens, UniProt P24723); details: read-out: 7 at 1 µM % inhibition
PRKCH, sequence (P24723 whole entry): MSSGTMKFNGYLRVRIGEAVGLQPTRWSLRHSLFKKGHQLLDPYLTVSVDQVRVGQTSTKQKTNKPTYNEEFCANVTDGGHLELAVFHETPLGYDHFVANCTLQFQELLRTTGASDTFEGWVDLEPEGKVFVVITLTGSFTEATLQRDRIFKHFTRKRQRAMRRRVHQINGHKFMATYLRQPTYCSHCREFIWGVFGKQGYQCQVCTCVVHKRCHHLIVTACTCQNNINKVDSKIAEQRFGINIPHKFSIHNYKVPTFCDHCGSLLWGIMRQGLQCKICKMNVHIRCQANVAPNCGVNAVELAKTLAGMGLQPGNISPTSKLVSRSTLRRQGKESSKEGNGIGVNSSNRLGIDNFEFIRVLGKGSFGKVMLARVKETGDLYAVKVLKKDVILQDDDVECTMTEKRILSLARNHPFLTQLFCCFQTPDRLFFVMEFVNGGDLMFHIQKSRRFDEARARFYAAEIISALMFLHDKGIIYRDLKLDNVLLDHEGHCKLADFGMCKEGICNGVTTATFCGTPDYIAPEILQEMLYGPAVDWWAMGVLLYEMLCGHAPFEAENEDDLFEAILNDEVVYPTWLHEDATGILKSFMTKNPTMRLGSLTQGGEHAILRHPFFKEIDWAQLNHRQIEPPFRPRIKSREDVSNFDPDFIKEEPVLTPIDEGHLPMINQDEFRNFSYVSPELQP
In short: as §1

LZK = target: T4, LZK (Homo sapiens, UniProt O43283); details: read-out: 7 at 1 µM % inhibition
T4 construct: gene MAP3K13
In short: as §1

TAOK1 = TAOK1 (Homo sapiens, UniProt Q7L7X3); details: read-out: 7 at 1 µM % inhibition
In short: as §1

QSK = target: T5, QSK (Homo sapiens, UniProt Q9Y2K2); details: read-out: 7 at 1 µM % inhibition
T5 construct: gene SIK3
In short: as §1

PRKR = target: T6, PRKR (Homo sapiens, UniProt P19525); details: read-out: 7 at 1 µM % inhibition
T6 construct: gene EIF2AK2
In short: as §1

PIM1 = PIM1 (Homo sapiens, UniProt P11309); details: read-out: 7 at 1 µM % inhibition
PIM1, sequence (P11309 whole entry): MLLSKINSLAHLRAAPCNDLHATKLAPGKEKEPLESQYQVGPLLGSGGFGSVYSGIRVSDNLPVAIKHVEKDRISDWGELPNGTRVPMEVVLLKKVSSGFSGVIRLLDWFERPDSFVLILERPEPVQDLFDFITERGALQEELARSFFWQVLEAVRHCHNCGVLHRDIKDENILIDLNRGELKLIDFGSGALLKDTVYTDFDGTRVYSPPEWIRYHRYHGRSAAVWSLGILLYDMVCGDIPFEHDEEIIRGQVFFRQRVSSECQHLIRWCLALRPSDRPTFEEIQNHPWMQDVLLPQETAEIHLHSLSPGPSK
In short: as §1

BIKE = target: T7, BIKE (Homo sapiens, UniProt Q9NSY1); details: read-out: 7 at 1 µM % inhibition
T7 construct: gene BMP2K
In short: as §1

## CNS(=O)(=O)c1ccc(N(C)C)c(Nc2ncnc3cc(OC)c(OC)cc23)c1 [compound 7, 3-((6,7-dimethoxyquinazolin-4-yl)amino)-4-(dimethylamino)-N-methylbenzenesulfonamide]
MYLK2
  inhibition at 1 µM: 0%
KIT
  inhibition at 1 µM: 13%
WNK4
  inhibition at 1 µM: 0%
SRPK1
  inhibition at 1 µM: 0%
IKK-epsilon
  inhibition at 1 µM: 18%
SNARK
  inhibition at 1 µM: 0%
EPHB3
  inhibition at 1 µM: 0%
PAK1
  inhibition at 1 µM: 0%
CLK4
  inhibition at 1 µM: 13%
MEK6
  inhibition at 1 µM: 0%
FGFR3(G697C)
  inhibition at 1 µM: 0%
FLT3(ITD)
  inhibition at 1 µM: 0%
FLT1
  inhibition at 1 µM: 0%
CLK3
  inhibition at 1 µM: 18%
PKNB(M.tuberculosis)
  inhibition at 1 µM: 23%
ALK
  inhibition at 1 µM: 10%
ITK
  inhibition at 1 µM: 0%
PRKCH
  inhibition at 1 µM: 13%
LZK
  inhibition at 1 µM: 23%
TAOK1
  inhibition at 1 µM: 25%
QSK
  inhibition at 1 µM: 52%
PRKR
  inhibition at 1 µM: 0%
PIM1
  inhibition at 1 µM: 0%
BIKE
  inhibition at 1 µM: 0%
